According to publication PMC10545732, “Structure-based drug discovery of a corticotropin-releasing hormone receptor 1 antagonist using an X-ray free-electron laser” (Experimental & Molecular Medicine, 2023):
“Also recorded” adds a separate entry of the source.

Columns and labels:
CORT serum levels = assay: Serum CORT level after TST (LC-MS); assay type: in vivo, mice; conditions: 30 mg/kg orally for 3 days, immediately after TST
Procedure: (§1) The mice were anesthetized via intraperitoneal injections of 2,2,2-tribromoethanol (300 mg/kg, Sigma-Aldrich) immediately after the TST and before blood from the heart was sampled. Blood samples were collected in plastic tubes and incubated at room temperature for at least 2 h. The sera were extracted after centrifugation at 13,000×g for 10 min at 4 °C. CORT levels were determined via LC‒MS analysis. Serum (10 µL) was mixed with 20 μL of an internal standard solution (d4-cortisol) to prepare the samples. Subsequently, 100 μL of acetonitrile was added, and the mixture was centrifuged at 16,000×g for 10 min for protein precipitation. The supernatants (60 μL) were transferred into an autosampler vial, and 30 μL of water was added for efficient separation via high-performance liquid chromatography (HPLC). LC‒MS was performed with a triple quadrupole mass spectrometer coupled with HPLC using a C18 reversed-phase column. CORT levels were determined using a calibration curve constructed using CORT-spiked mouse serum. Serum samples (20 μL) were analyzed using a commercially available ELISA kit for ACTH (ab263880, Abcam) to measure ACTH serum levels.

[1] = In vitro BBB permeability assay; assay type: in vitro ADME, human; conditions: human; 10 μM apical, 12-h incubation, hCMEC/D3 monolayer; read-out: permeability coefficient
Procedure: Human cerebral microvascular endothelial cells (hCMECs/D3, SCC066; Sigma-Aldrich) were used to assess the permeability of CRF1R antagonists across the BBB. hCMECs were seeded on Falcon^TM cell culture inserts (08-770, Fisher Scientific) with 0.4 μm pore sizes precoated with collagen type I from rat tails (354236, Corning) at a density of 50,000 cells/mL in endothelial cell growth medium-2 (EGM-2, CC-3162; Lonza). The medium was changed with EGM-2 every three to four days for proliferation and with EGM-2 containing 2.5% human serum (SLBX6020, Sigma-Aldrich) for differentiation. Cell culture inserts were transferred into 24-well plates containing 700 μL of EGM-2 in each well (basolateral compartment) for the permeability assay. The medium in the inserts (apical compartment) was then replaced with 300 μL EGM-2 containing 10 μM BMK-C203 or BMK-C205. Apical and basolateral compartments were collected after a 12-h incubation at 37 °C, and drug concentrations were measured using HPLC. For sample preparation, 50 μL of the sample was mixed with 10 μL of an internal standard solution (d4-cortisol). Subsequently, 50 μL of acetonitrile was added, and the mixture was centrifuged at 16,000×g for 10 min for protein precipitation. The supernatants were used for LC‒MS analysis with a triple quadrupole mass spectrometer coupled with HPLC using a C18 reversed-phase column. The concentration of the antagonists was determined using a calibration curve. The permeability coefficient (P) was calculated according to Pardridge et al.[34]. The permeability-surface area product (PS, in cm^3/s) was divided by the filter surface area A (in cm^2) using Eq. (1) as follows:1 Pcm/s=Vd×△Ma/A×[…]×△t where Vd is the volume in the donor compartment in cm^3, ΔMa is the total amount of the compound in the […] compartment after t seconds, Md is the donor amount, Δt is the incubation time, and A is the filter area in cm^2.

PK studies in rats = assay type: in vivo, SD rats; conditions: for AUC(0-t) / half-life / Cmax / Tmax / bioavailability: male, Sprague-Dawley, rat, plasma, SD rats, n = 3
Procedure: CRF1R antagonist PKs were studied in naïve male SD rats following a single i.v. bolus injection or p.o. gavage. The i.v. injections used Antalarmin, BMK-C203, or BMK-C205 at doses of 5 mg/kg and BMK-I-152 at a dose of 1 mg/kg. The antagonist’s doses in the p.o. injection was 10 mg/kg. Three male SD rats weighing between 220 and 260 g were used to evaluate CRF1R antagonist PKs. The vehicle used for all dose groups was […]: TPGS: PEG400 (70%:20%:10%). Blood samples were collected from all treatment groups at 0 h (predose), 0.083, 0.25, 0.5, 1, 2, 4, 6, 8, and 24 h after dosing. Antalarmin, BMK-I-152, BMK-C203, and BMK-C205 concentrations in the plasma samples were determined via LC‒MS/MS (LLOQ was 1 ng/mL for CRF1R antagonists). PK parameter estimates were determined using the serial time-course profiles for plasma concentrations of three male rats per group via noncompartmental analysis using commercially available software (Phoenix WinNonlin, version 8.1, Pharsight Corporation, Mountain View, CA).

ACTH serum levels = assay: Serum ACTH level after TST (ELISA); assay type: in vivo, mice; conditions: 30 mg/kg orally for 3 days, immediately after TST
Procedure: as §1

CYP2C19 = molecular target: T1, CYP2C19 (Homo sapiens, UniProt P33261); assay: CYP inhibition assay CYP2C19 (S-mephenytoin 4-hydroxylase); assay type: in vitro ADME; conditions: 10 μM, human liver microsomes, n = 3
T1 construct: 0.25 mg/mL human liver microsomes; from tissue; host or cells: human liver microsomes
T1 sequence (P33261 whole entry): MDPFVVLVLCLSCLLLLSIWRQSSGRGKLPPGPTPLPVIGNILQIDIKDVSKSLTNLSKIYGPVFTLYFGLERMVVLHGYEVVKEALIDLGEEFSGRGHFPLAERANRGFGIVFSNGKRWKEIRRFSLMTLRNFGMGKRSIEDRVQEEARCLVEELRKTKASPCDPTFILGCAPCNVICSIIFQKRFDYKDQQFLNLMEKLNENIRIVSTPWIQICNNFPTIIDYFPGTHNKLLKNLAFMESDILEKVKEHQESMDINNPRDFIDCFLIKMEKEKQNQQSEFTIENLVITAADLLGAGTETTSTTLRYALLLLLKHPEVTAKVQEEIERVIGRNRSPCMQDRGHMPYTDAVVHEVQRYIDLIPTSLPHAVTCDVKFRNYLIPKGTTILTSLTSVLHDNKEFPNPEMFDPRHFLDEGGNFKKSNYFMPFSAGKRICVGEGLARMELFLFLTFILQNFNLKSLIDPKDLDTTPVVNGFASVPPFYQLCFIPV
Procedure: (§2) Phenacetin O-demethylase, diclofenac 4-hydroxylase, S-mephenytoin 4-hydroxylase, dextromethorphan O-demethylase, and midazolam 1’-hydroxylase activities were determined as probe activities for CYP1A2, CYP2C9, CYP2C19, CYP2D6, and CYP3A4, respectively, using cocktail incubation. […] The cocktail incubation mixtures consisted of 0.25 mg/mL human liver microsomes, 0.1 M phosphate buffer (pH 7.4), an NADPH regeneration system, and inhibitors (CRF1R antagonist compounds, 10 µM) in a total volume of 100 μL. The final volume of the organic solvents in the incubation mixture was 1% (v/v). […] All incubations were performed in triplicate, and the mean values were used for analysis. The samples were then centrifuged at 15,000 rpm for 5 min at 4 °C. […] The CYP-mediated activities in the presence of inhibitors were expressed as percentages of the corresponding control values.

C57BL/6J mice = assay: Tail suspension test (TST); assay type: in vivo; conditions: 30 mg/kg orally for 3 days, test 2 h after third dose, last 4 min of 6 min
Procedure: C57BL/6J mice (male, 9–10 weeks old) were used for the behavioral tests. All mice were maintained under a 12:12-h light–dark cycle (lights on at 7:00 A.M.) with access to food and water ad libitum. Animal care and handling were performed according to guidelines by the Institutional Animal Care and Use Committee of Yonsei University (Seoul, Korea). Antalarmin, BMK-C203, and BMK-C205 were dissolved in peceol: TPGS: PEG400 (vehicle) (70%:20%:10%, respectively) and administered orally at a dose of 30 mg/kg for 3 days at 24-h intervals. All behavioral tests were conducted 2 h after the third drug was administered during light periods of the circadian cycle. TSTs were performed to verify the effect of CRF1R antagonists on depressive-like behavior. Each mouse was suspended by its tail on a bar 30 cm above the ground for 6 min using adhesive tape. Their movements were recorded by a camera and analyzed using the same parameters via EthoVision XT 8.5 software (Noldus Technologies). Immobility times during the last 4 min of the task were measured. Each mouse was placed in an open field (40 cm × 40 cm × 40 cm chamber) for 1 h to conduct an open field test (OFT) and test locomotion. Their locomotion was recorded and analyzed using EthoVision XT 8.5.

CYP2C9 = molecular target: T2, CYP2C9 (Homo sapiens, UniProt P11712); assay: CYP inhibition assay CYP2C9 (diclofenac 4-hydroxylase); assay type: in vitro ADME; conditions: 10 μM, human liver microsomes, n = 3
T2 construct: 0.25 mg/mL human liver microsomes; from tissue; host or cells: human liver microsomes
T2 sequence (P11712 whole entry): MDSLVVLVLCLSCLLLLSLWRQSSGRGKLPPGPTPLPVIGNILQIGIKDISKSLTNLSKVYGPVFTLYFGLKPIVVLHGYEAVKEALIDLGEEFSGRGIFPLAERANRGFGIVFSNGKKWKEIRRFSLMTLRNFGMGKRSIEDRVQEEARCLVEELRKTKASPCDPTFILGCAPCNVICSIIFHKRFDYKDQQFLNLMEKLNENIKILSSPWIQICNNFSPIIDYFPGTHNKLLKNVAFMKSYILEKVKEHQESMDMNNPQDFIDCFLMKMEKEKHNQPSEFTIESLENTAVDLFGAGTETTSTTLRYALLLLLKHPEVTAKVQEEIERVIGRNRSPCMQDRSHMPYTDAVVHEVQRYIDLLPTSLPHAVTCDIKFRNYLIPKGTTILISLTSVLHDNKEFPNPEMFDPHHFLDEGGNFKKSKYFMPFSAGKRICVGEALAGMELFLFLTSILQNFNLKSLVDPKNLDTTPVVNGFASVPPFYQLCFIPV
Procedure: as §2

CYP2D6 = CYP2D6 (Homo sapiens, UniProt P10635); assay: CYP inhibition assay CYP2D6 (dextromethorphan O-demethylase); conditions: 10 μM, human liver microsomes, n = 3
CYP2D6, sequence (P10635 whole entry): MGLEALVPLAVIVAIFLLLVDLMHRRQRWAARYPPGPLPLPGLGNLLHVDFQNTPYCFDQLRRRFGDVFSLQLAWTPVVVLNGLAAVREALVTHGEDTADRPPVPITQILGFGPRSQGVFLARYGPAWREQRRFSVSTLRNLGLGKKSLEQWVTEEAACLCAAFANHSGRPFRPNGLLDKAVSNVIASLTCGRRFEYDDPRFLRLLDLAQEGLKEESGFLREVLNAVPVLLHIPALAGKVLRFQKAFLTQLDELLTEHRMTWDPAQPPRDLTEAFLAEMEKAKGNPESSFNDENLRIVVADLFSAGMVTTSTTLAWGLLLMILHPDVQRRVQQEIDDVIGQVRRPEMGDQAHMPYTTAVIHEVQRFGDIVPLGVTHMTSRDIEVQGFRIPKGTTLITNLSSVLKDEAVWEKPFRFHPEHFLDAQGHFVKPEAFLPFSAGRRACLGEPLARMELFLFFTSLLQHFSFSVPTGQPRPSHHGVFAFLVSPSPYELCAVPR
Procedure: as §2

SMILES	serum CORT level versus vehicle (CORT serum levels)	Papp at 12 h, 10 µM [1] [×10⁻⁶ cm/s]	AUC(0-t) (PK studies in rats; iv, I.V, 5 mg/kg) [ng·h/mL]	half-life (PK studies in rats; iv, I.V, 5 mg/kg) [h]	AUC(0-t) (PK studies in rats; po, P.O, 10 mg/kg) [ng·h/mL]	Cmax (PK studies in rats; po, P.O, 10 mg/kg) [ng/mL]	Tmax (PK studies in rats; po, P.O, 10 mg/kg) [h]	bioavailability (PK studies in rats; po, P.O, 10 mg/kg) [%]	half-life (PK studies in rats; po, P.O, 10 mg/kg) [h]	serum ACTH level versus vehicle (ACTH serum levels)	CYP2C19, percentage of control activity (CYP2C19)	TST immobility time versus vehicle (C57BL/6J mice)	CYP2C9, percentage of control activity (CYP2C9)	CYP2D6, percentage of control activity (CYP2D6)	serum concentration relative to BMK-C203 (PK studies in rats; 2 h after oral administration in the PK test)
COc1cc(Br)cc(OC)c1-c1c(C)nn2c(N(CCCC(F)(F)F)CCCC(F)(F)F)nc(C)nc12 [BMK-C203]	did not significantly affect	0.0296	20600	4.76	16100	1370	4.67	39.5	4.22	decreased; also recorded: lower than those in the vehicle group; also recorded: significantly affected	83.2 ± 0.5 percentage of control activity	did not significantly affect	94.9 ± 1.9 percentage of control activity	> 100 ± 4.0 percentage of control activity	–
CCCCN(CC1CC1)c1nc(C)nc2c(-c3c(OC)cc(Br)cc3OC)c(C)nn12 [BMK-C205]	decreased	0.211	22900	6.5	9880	2400	2	21.6	3.87	decreased; also recorded: lower than those in the vehicle group	89.7 ± 3.8 percentage of control activity	significantly decreased; also recorded: more mobile than the vehicle group	89.8 ± 2.4 percentage of control activity	> 100 ± 3.8 percentage of control activity	twice as high
